Experimental data published in patent publication US10294202B2, “Pyrrolidinones as herbicides” (FMC Corporation, priority 2013, dated 2019).

Columns and labels:
[1] = tested on: lambsquarters; test: Test C pre-/postemergence herbicide test; format: in vivo, Chenopodium album
Procedure, shortened: (§1)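 Greenhouse plants scored visually against untreated controls 13–15 days after treatment, 0 = no effect, 100 = complete control. Test chemicals in a non-phytotoxic solvent with surfactant were applied either to soil (loam/sand) at planting or to foliage of 1- to 4-leaf plants, 2–18 cm tall.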

[2] = tested on: ducksalad; test: Test B flooded paddy test; format: in vivo, Heteranthera limosa; conditions: 500 g ai/ha, Flood; scale of 0 to 100 where 0 is no effect and 100 is complete control
Procedure, shortened: (§2)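 Treatment was made at the 2-leaf stage by dosing the standing floodwater, kept 3 cm above soil level for the whole test. Greenhouse exposure lasted 13 to 15 days. Response is a visual percent rating relative to controls, where a dash indicates no test result.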

[3] = tested on: ragweed; test: Test C pre-/postemergence herbicide test; format: in vivo, Ambrosia elatior
Procedure, shortened: as §1

[4] = tested on: corn; test: Test A pre-/postemergence herbicide test; format: in vivo, Zea mays; conditions: Postemergence
Procedure, shortened: (§3)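 Visual 0–100 ratings (100 = complete control) made about 10 days after treatment, greenhouse-held plants compared with untreated controls. Treatments: postemergence sprays on one- to two-leaf plants (2–10 cm tall) and preemergence directed soil sprays after planting in loam–sand, chemicals formulated in non-phytotoxic solvent containing surfactant.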

[5] = tested on: pigweed; test: Test A pre-/postemergence herbicide test; format: in vivo, Amaranthus retroflexus
Procedure, shortened: as §3

[6] = tested on: wheat; test: Test A pre-/postemergence herbicide test; format: in vivo, Triticum aestivum; conditions: Postemergence
Procedure, shortened: as §3

[7] = tested on: nutsedge, yellow; test: Test C pre-/postemergence herbicide test; format: in vivo, Cyperus esculentus
Procedure, shortened: as §1

[8] = tested on: morningglory; test: Test C pre-/postemergence herbicide test; format: in vivo, Ipomoea coccinea
Procedure, shortened: as §1

[9] = tested on: rice; test: Test B flooded paddy test; format: in vivo, Oryza sativa; conditions: 500 g ai/ha, Flood; scale of 0 to 100 where 0 is no effect and 100 is complete control
Procedure, shortened: as §2

[10] = tested on: ryegrass, Italian; test: Test C pre-/postemergence herbicide test; format: in vivo, Lolium multiflorum
Procedure, shortened: as §1

[11] = tested on: corn; test: Test C pre-/postemergence herbicide test; format: in vivo, Zea mays
Procedure, shortened: as §1

[12] = tested on: johnsongrass; test: Test C pre-/postemergence herbicide test; format: in vivo, Sorghum halepense
Procedure, shortened: as §1

[13] = Preemergence, 31 g ai/ha, scale 0 to 100, 0 is no effect and 100 is complete control
[14] = Preemergence, 62 g ai/ha, scale 0 to 100 (0 no effect, 100 complete control)
[15] = Preemergence, 125 g ai/ha, scale 0 to 100
[16] = 125 g ai/ha, visual rating on 0 to 100 scale (0 no effect, 100 complete control), approx. 10 days
[17] = 500 g ai/ha, 0 to 100 scale (0 no effect, 100 complete control)
[18] = Postemergence, 125 g ai/ha, visual rating on 0 to 100 scale (0 no effect, 100 complete control), approx. 10 days
[19] = Postemergence, 500 g ai/ha, 0 to 100 scale (0 no effect, 100 complete control)
[20] = Preemergence, 125 g ai/ha, 0 to 100 scale where 0 is no effect and 100 is complete control
[21] = Preemergence, 500 g ai/ha, visual rating on 0 to 100 scale (0 no effect, 100 complete control)
[22] = Postemergence, 31 g ai/ha, scale 0 to 100 (0 no effect, 100 complete control)
[23] = Postemergence, 62 g ai/ha, scale 0 (no effect) to 100 (complete control)
[24] = Postemergence, 125 g ai/ha, scale 0 to 100 (0 no effect, 100 complete control)
[25] = Postemergence, 250 g ai/ha, scale 0 to 100 (0 no effect, 100 complete control)

SMILES: CC(C)c1cccc(C2CNC(=O)C2C(=O)Nc2ccccc2F)c1 (stereo not shown) [Compound 318]
- Lambsquarters plant response rating [1, 13]: 10
- Lambsquarters plant response rating [1, 14]: 55
- Plant response rating, Lambsquarters [1, 15]: 50
- Plant response rating (scale of 0 to 100), Lambsquarters ([1]; Preemergence, 250 g ai/ha): 60
- Plant response rating, Ducksalad [2]: 100
- Ragweed plant response rating [3, 14]: 0
- Plant response rating, Ragweed [3, 15]: 0
- Plant response rating, Corn [4, 16]: 20
- Plant response rating, Corn [4, 17]: 50
- Plant response rating, Pigweed [5, 18]: 20
- Plant response rating, Pigweed [5, 19]: 20
- Plant response rating, Pigweed [5, 20]: 0
- Pigweed plant response rating [5, 21]: 20
- Plant response rating, Wheat [6, 16]: 20
- Plant response rating, Wheat [6, 17]: 30
- Nutsedge, Yellow plant response rating [7, 13]: 0
- Nutsedge, Yellow plant response rating [7, 14]: 0
- Plant response rating, Nutsedge, Yellow [7, 15]: 0
- Plant response rating (scale of 0 to 100), Nutsedge, Yellow ([7]; Preemergence, 250 g ai/ha): 0
- Morningglory plant response rating [8, 13]: 30
- Morningglory plant response rating [8, 14]: 40
- Plant response rating, Morningglory [8, 15]: 30
- Plant response rating (scale of 0 to 100), Morningglory ([8]; Preemergence, 250 g ai/ha): 40
- Plant response rating, Rice [9]: 15
- Ryegrass, Italian plant response rating [10, 14]: 0
- Plant response rating, Ryegrass, Italian [10, 15]: 0
- Corn plant response rating [11, 13]: 0
- Corn plant response rating [11, 14]: 0
- Plant response rating, Corn [11, 15]: 10
- Plant response rating (scale of 0 to 100), Corn ([11]; Preemergence, 250 g ai/ha): 60
- Johnsongrass plant response rating [12, 13]: 0
- Johnsongrass plant response rating [12, 14]: 0
- Plant response rating, Johnsongrass [12, 15]: 45
- Plant response rating (scale of 0 to 100), Johnsongrass ([12]; Preemergence, 250 g ai/ha): 60

SMILES: CC(C)c1cccc(C2CNC(=O)C2C(=O)Nc2cccc(F)c2F)c1 (stereo not shown) [Compound 319]
- Lambsquarters plant response rating [1, 13]: 60
- Lambsquarters plant response rating [1, 14]: 65
- Plant response rating, Lambsquarters [1, 15]: 65
- Plant response rating (scale of 0 to 100), Lambsquarters ([1]; Preemergence, 250 g ai/ha): 75
- Plant response rating, Ducksalad [2]: 100
- Ragweed plant response rating [3, 14]: 15
- Plant response rating, Ragweed [3, 15]: 40
- Plant response rating, Corn [4, 16]: 40
- Plant response rating, Corn [4, 17]: 80
- Plant response rating, Pigweed [5, 18]: 0
- Plant response rating, Pigweed [5, 19]: 20
- Plant response rating, Pigweed [5, 20]: 0
- Pigweed plant response rating [5, 21]: 20
- Plant response rating, Wheat [6, 16]: 20
- Plant response rating, Wheat [6, 17]: 50
- Nutsedge, Yellow plant response rating [7, 13]: 0
- Nutsedge, Yellow plant response rating [7, 14]: 0
- Plant response rating, Nutsedge, Yellow [7, 15]: 0
- Plant response rating (scale of 0 to 100), Nutsedge, Yellow ([7]; Preemergence, 250 g ai/ha): 30
- Morningglory plant response rating [8, 13]: 55
- Morningglory plant response rating [8, 14]: 40
- Plant response rating, Morningglory [8, 15]: 45
- Plant response rating (scale of 0 to 100), Morningglory ([8]; Preemergence, 250 g ai/ha): 40
- Plant response rating, Rice [9]: 0
- Ryegrass, Italian plant response rating [10, 14]: 10
- Plant response rating, Ryegrass, Italian [10, 15]: 20
- Corn plant response rating [11, 13]: 0
- Corn plant response rating [11, 14]: 30
- Plant response rating, Corn [11, 15]: 60
- Plant response rating (scale of 0 to 100), Corn ([11]; Preemergence, 250 g ai/ha): 65
- Johnsongrass plant response rating [12, 13]: 40
- Johnsongrass plant response rating [12, 14]: 55
- Plant response rating, Johnsongrass [12, 15]: 65
- Plant response rating (scale of 0 to 100), Johnsongrass ([12]; Preemergence, 250 g ai/ha): 75

SMILES: O=C1NCC(c2cccc(OC(F)F)c2)C1C(=O)Nc1ccccc1F (stereo not shown) [Compound 323]
- Plant response rating, Lambsquarters [1, 22]: 10
- Plant response rating, Lambsquarters [1, 23]: 10
- Plant response rating, Lambsquarters [1, 24]: 65
- Plant response rating, Lambsquarters [1, 25]: 65
- Lambsquarters plant response rating [1, 13]: 40
- Lambsquarters plant response rating [1, 14]: 50
- Plant response rating, Lambsquarters [1, 15]: 75
- Plant response rating (scale of 0 to 100), Lambsquarters ([1]; Preemergence, 250 g ai/ha): 95
- Plant response rating, Ducksalad [2]: 100
- Plant response rating, Ragweed [3, 22]: 0
- Plant response rating, Ragweed [3, 23]: 0
- Plant response rating, Ragweed [3, 24]: 15
- Plant response rating, Ragweed [3, 25]: 20
- Ragweed plant response rating [3, 14]: 10
- Plant response rating, Ragweed [3, 15]: 40
- Plant response rating, Corn [4, 16]: 70
- Plant response rating, Corn [4, 17]: 90
- Plant response rating, Pigweed [5, 18]: 20
- Plant response rating, Pigweed [5, 19]: 30
- Plant response rating, Pigweed [5, 20]: 20
- Pigweed plant response rating [5, 21]: 30
- Plant response rating, Wheat [6, 16]: 40
- Plant response rating, Wheat [6, 17]: 80
- Plant response rating, Nutsedge, Yellow [7, 22]: 0
- Plant response rating, Nutsedge, Yellow [7, 23]: 0
- Plant response rating, Nutsedge, Yellow [7, 24]: 0
- Plant response rating, Nutsedge, Yellow [7, 25]: 0
- Nutsedge, Yellow plant response rating [7, 13]: 20
- Nutsedge, Yellow plant response rating [7, 14]: 25
- Plant response rating, Nutsedge, Yellow [7, 15]: 25
- Plant response rating (scale of 0 to 100), Nutsedge, Yellow ([7]; Preemergence, 250 g ai/ha): 75
- Plant response rating, Morningglory [8, 22]: 0
- Plant response rating, Morningglory [8, 23]: 25
- Plant response rating, Morningglory [8, 24]: 5
- Plant response rating, Morningglory [8, 25]: 25
- Morningglory plant response rating [8, 13]: 0
- Morningglory plant response rating [8, 14]: 0
- Plant response rating, Morningglory [8, 15]: 0
- Plant response rating (scale of 0 to 100), Morningglory ([8]; Preemergence, 250 g ai/ha): 30
- Plant response rating, Rice [9]: 20
- Plant response rating, Ryegrass, Italian [10, 22]: 0
- Plant response rating, Ryegrass, Italian [10, 23]: 0
- Plant response rating, Ryegrass, Italian [10, 24]: 0
- Plant response rating, Ryegrass, Italian [10, 25]: 5
- Ryegrass, Italian plant response rating [10, 14]: 10
- Plant response rating, Ryegrass, Italian [10, 15]: 0
- Plant response rating, Corn [11, 22]: 0
- Plant response rating, Corn [11, 23]: 0
- Plant response rating, Corn [11, 24]: 5
- Plant response rating, Corn [11, 25]: 10
- Corn plant response rating [11, 13]: 0
- Corn plant response rating [11, 14]: 0
- Plant response rating, Corn [11, 15]: 10
- Plant response rating (scale of 0 to 100), Corn ([11]; Preemergence, 250 g ai/ha): 75
- Plant response rating, Johnsongrass [12, 22]: 0
- Plant response rating, Johnsongrass [12, 23]: 0
- Plant response rating, Johnsongrass [12, 24]: 0
- Plant response rating, Johnsongrass [12, 25]: 10
- Johnsongrass plant response rating [12, 13]: 0
- Johnsongrass plant response rating [12, 14]: 0
- Plant response rating, Johnsongrass [12, 15]: 45
- Plant response rating (scale of 0 to 100), Johnsongrass ([12]; Preemergence, 250 g ai/ha): 60
